Here are results for 23 compounds from US20230079045A1 (priority 2019, published 2023).

What all share (assay type): cell-based, influenza virus
The subject of one test is IFVA/Mal/302/54. As to the kind of experiment: cytopathic effect (CPE) antiviral test in MDCK cells, IFVA/Mal/302/54. Particulars: unidentified influenza virus, MDCK, 120 h, read-out: EC50(IFVA/Mal/302/54), MDCK cells, CPE method, CCK-8 cell viability, 5 days.
In another test the test system is IFVA/Weiss/43. The test is described as follows: cytopathic effect (CPE) antiviral test in MDCK cells, IFVA/Weiss/43. Particulars: unidentified influenza virus, MDCK, 120 h, read-out: EC50(IFVA/Weiss/43), MDCK cells, CPE method, CCK-8 cell viability, 5 days. (In general: Damage to the host cells serves as the signal in cytopathic effect assays.)
The subject of the next test is IFV A/PR/8/34. The test is described as follows: cytopathic effect (CPE) antiviral test in MDCK cells, IFV A/PR/8/34. Particulars: unidentified influenza virus, PR/8, MDCK, 120 h, read-out: EC50(IFV A/PR/8/34).

For `O=C(Nc1ccc2oc(-c3ccnc(C(=O)N4CCN(C(c5ccccc5)c5nnn(C(F)F)n5)CC4)c3)nc2c1)[C@H]1C[C@@H]1F` (mixture of isomers) [Compound 95, (1R,2S)—N-(2-(2-(4-((R/S)-(2-(difluoromethyl)-2H-tetrazol-5-yl)(phenyl)methyl)piperazine-1-carbonyl)pyridin-4-yl)benzo[d]oxazol-5-yl)-2-fluorocyclopropane-1-carboxamide], the values for the EC50 with IFVA/Mal/302/54 and in the test on IFVA/Weiss/43 were 10 nM and 17 nM, respectively.
Turning to `CC(=O)Nc1ccc2oc(-c3ccnc(C(=O)N4CCN(C(c5ccccc5)c5nnn(C)n5)[C@H](C)C4)c3)nc2c1` (mixture of isomers) [Compound 16a, N-(2-(2-((3R)-3-methyl-4-((2-methyl-2H-tetrazol-5-yl)(phenyl)methyl)piperazine-1-carbonyl)pyridin-4-yl)benzo[d]oxazol-5-yl)acetamide], the EC50 is over 10000 nM in the test with IFVA/Mal/302/54 and 7160 nM in the test with IFVA/Weiss/43.
For `O=C(Nc1ccc2oc(-c3ccnc(C(=O)N4CCN(C(c5ccccc5)c5nnn(C(F)F)n5)CC4)c3)nc2c1)[C@@H]1CC1(F)F` (mixture of isomers) [Compound 29, (1S)—N-(2-(2-(4-((2-(difluoromethyl)-2H-tetrazol-5-yl)(phenyl)methyl)piperazine-1-carbonyl)pyridin-4-yl)benzo[d]oxazol-5-yl)-2,2-difluorocyclopropane-1-carboxamide], in that order: 22 nM and 4 nM.
For the compound `O=C(Nc1ccc2oc(-c3ccnc(C(=O)N4CCN(C(c5ccccc5)c5nnn(C(F)F)n5)CC4)c3)nc2c1)[C@@H]1C[C@@H]1F` (mixture of isomers) [Compound 31, (1S,2S)-2-fluoro-N-(2-(2-(4-((2-difluoromethyl-2H-tetrazol-5-yl)(phenyl)methyl)piperazine-1-carbonyl)pyridin-4-yl)benzo[d]oxazol-5-yl)cyclopropane-1-carboxamide], the figures for the EC50 in the test with IFVA/Mal/302/54 and in the test with IFVA/Weiss/43 were 7 nM and 2 nM, respectively.
For `CC(=O)Nc1ccc2oc(-c3ccnc(C(=O)N4CCN(C(c5ccccc5)c5nnn(C(F)F)n5)CC4)c3F)nc2c1` (racemic) [Compound 79, (R/S)—N-(2-(2-(4-((2-(difluoromethyl)-2H-tetrazol-5-yl)(phenyl)methyl)piperazine-1-carbonyl)-3-fluoropyridin-4-yl)benzo[d]oxazol-5-yl)acetamide], in that order: 13 nM and 7 nM.
In the case of `Cn1ccnc1-c1ccc2oc(-c3ccnc(C(=O)N4CCN(C(c5ccccc5)c5nnn(C(F)F)n5)CC4)c3)nc2c1` (racemic) [Compound 88, (R/S)-(4-((2-(difluoromethyl)-2H-tetrazol-5-yl)(phenyl)methyl)piperazin-1-yl)(4-(5-(1-methyl-1H-imidazol-2-yl)benzo[d]oxazol-2-yl)pyridin-2-yl)methanone], the EC50 with IFVA/Mal/302/54 and in the test on IFVA/Weiss/43 was 2 nM throughout.
For the compound `CC(=O)Nc1ccc2nc(-c3ccnc(C(=O)N4CCN(C(c5ccccc5)c5nnn(C(F)F)n5)CC4)c3)oc2c1` (racemic) [Compound 90, (R/S)—N-(2-(2-(4-((2-(difluoromethyl)-2H-tetrazol-5-yl)(phenyl)methyl)piperazine-1-carbonyl)pyridin-4-yl)benzo[d]oxazol-6-yl)acetamide], the EC50 in the test on IFVA/Mal/302/54 was determined as 18 nM; in the test on IFVA/Weiss/43, 28 nM.
For `CCC(=O)Nc1ccc2oc(-c3ccnc(C(=O)N4CCN(C(c5ccccc5)c5nnn(C(F)F)n5)CC4)c3)nc2c1` (racemic) [Compound 96, (R/S)—N-(2-(2-(4-((2-(difluoromethyl)-2H-tetrazol-5-yl)(phenyl)methyl)piperazine-1-carbonyl)pyridin-4-yl)benzo[d]oxazol-5-yl)propionamide] the same measures were 7 nM and 12 nM.
`CC(C)C(=O)Nc1ccc2oc(-c3ccnc(C(=O)N4CCN(C(c5ccccc5)c5nnn(C(F)F)n5)CC4)c3)nc2c1` (racemic) [Compound 97, (R/S)—N-(2-(2-(4-((2-(difluoromethyl)-2H-tetrazol-5-yl)(phenyl)methyl)piperazine-1-carbonyl)pyridin-4-yl)benzo[d]oxazol-5-yl)isobutyramide]: the EC50 with IFVA/Mal/302/54 worked out at 6 nM; in the test with IFVA/Weiss/43, 7 nM.
Take `Cc1nnn(C(c2ccccc2)C2CCN(C(=O)c3cc(-c4cc5cc(-c6cncn6C)ccc5o4)ccn3)CC2)n1` (racemic) [Compound 186, (R/S)-(4-(5-(1-methyl-1H-imidazol-5-yl)benzofuran-2-yl)pyridin-2-yl)(4-((5-methyl-2H-tetrazol-2-yl)(phenyl)methyl)piperidin-1-yl)methanone]: the EC50 with IFV A/PR/8/34 came to 2 nM.
Consider `Cc1nnn(C(c2ccccc2)C2CCN(C(=O)c3cc(-c4nc5cc(-c6cnn(C)c6C)ccc5o4)ccn3)CC2)n1` (racemic) [Compound 187, (R/S)-(4-(5-(1,5-dimethyl-1H-pyrazol-4-yl)benzo[d]oxazol-2-yl)pyridin-2-yl)(4-((5-methyl-2H-tetrazol-2-yl)(phenyl)methyl)piperidin-1-yl)methanone], for which, in the test on IFV A/PR/8/34, the EC50 worked out at 6 nM.
Take `Cc1cn(-c2ccc3oc(-c4ccnc(C(=O)N5CCC(C(c6ccccc6)n6nnc(C)n6)CC5)c4)nc3c2)cn1` (racemic) [Compound 189, (R/S)-(4-(5-(4-methyl-1H-imidazol-1-yl)benzo[d]oxazol-2-yl)pyridin-2-yl)(4-((5-methyl-2H-tetrazol-2-yl)(phenyl)methyl)piperidin-1-yl)methanone]: in the test on IFV A/PR/8/34, the EC50 amounted to 11 nM.
On the same count and under the same terms, the result for `[2H]C([2H])([2H])c1nnn(C(c2ccccc2)C2CCN(C(=O)c3cc(-c4nc5cc(NC(=O)[C@@H]6C[C@@H]6F)ccc5o4)ccn3)CC2)n1` (mixture of isomers) [Compound 201, (1S,2S)-2-fluoro-N-(2-(2-(4-((R/S)-(5-(methyl-d3)-2H-tetrazol-2-yl)(phenyl)methyl)piperidine-1-carbonyl)pyridin-4-yl)benzo[d]oxazol-5-yl)cyclopropane-1-carboxamide] reads 3.6 nM; that for `O=C(c1cc(-c2nc3cc(-c4cncn4C(F)F)ccc3o2)ccn1)N1CCC(C(c2ccccc2)n2nnc(CO)n2)CC1` (racemic) [Compound 206, (R/S)-(4-(5-(1-(difluoromethyl)-1H-imidazol-5-yl)benzo[d]oxazol-2-yl)pyridin-2-yl)(4-((5-(hydroxymethyl)-2H-tetrazol-2-yl)(phenyl)methyl)piperidin-1-yl)methanone], 4.5 nM.
On the same count and under the same terms, the result for `O=C(c1cc(-c2nc3cc(-c4cn(C(F)F)cn4)ccc3o2)ccn1)N1CCC(C(c2ccccc2)n2nnc(CO)n2)CC1` (racemic) [Compound 207, (R/S)-(4-(5-(1-(difluoromethyl)-1H-imidazol-4-yl)benzo[d]oxazol-2-yl)pyridin-2-yl)(4-((5-(hydroxymethyl)-2H-tetrazol-2-yl)(phenyl)methyl)piperidin-1-yl)methanone] reads 1.3 nM; that for `Cc1nnn(C(c2ccccc2)C2CCN(C(=O)c3cc(-c4nc5ccc(NC(=O)[C@@H]6C[C@@H]6F)cc5o4)ccn3)CC2)n1` (single isomer, unassigned) [Compound 134], 4 nM.
Consider `Cc1nnn(C(c2ccc(F)cc2)C2CCN(C(=O)c3cc(-c4nc5cc(NC(=O)[C@@H]6C[C@@H]6F)ccc5o4)ccn3)CC2)n1` (single isomer, unassigned) [Compound 202], for which the EC50 in the test with IFV A/PR/8/34 worked out at 2.6 nM.
On the same count and under the same terms, the result for `[2H]C([2H])([2H])C(C(=O)Nc1ccc2oc(-c3ccnc(C(=O)N4CCN([C@H](c5ccccc5)c5nnn(C(F)F)n5)CC4)c3)cc2c1)C([2H])([2H])[2H]` [Compound 136, 3,3,3-trideuterio-N-[2-[2-[4-[(R)-[2-(difluoromethyl)tetrazol-5-yl]-phenyl-methyl]piperazine-1-carbonyl]-4-pyridyl]benzofuran-5-yl]-2-(trideuteriomethyl)propanamide] reads 8 nM; that for `Cc1nnn([C@@H](c2ccccc2)C2CCN(C(=O)c3cc(-c4cc5cc(NC(=O)[C@@H]6C[C@@H]6F)ccc5o4)ccn3)CC2)n1` [Compound 139, (1S,2S)-2-fluoro-N-(2-(2-(4-((R)-(5-methyl-2H-tetrazol-2-yl)(phenyl)methyl)piperidine-1-carbonyl)pyridin-4-yl)benzofuran-5-yl)cyclopropanecarboxamide], 4 nM; that for `[2H]C([2H])([2H])n1nnc(C(c2ccccc2)N2CCN(C(=O)c3cc(-c4nc5cc(NC(=O)[C@@H]6C[C@@H]6F)ccc5o4)ccn3)CC2)n1` (stereo partly drawn) [Compound 178, (1S,2S)-2-fluoro-N-(2-(2-(4-((R)-(2-Deuteratedmethyl-2H-tetrazol-5-yl)(phenyl)methyl)piperazine-1-carbonyl)pyridin-4-yl)benzo[d]oxazol-5-yl)cyclopropanecarboxamide], 7 nM.
With `Cc1nnn([C@@H](c2ccsc2)C2CCN(C(=O)c3cc(-c4nc5cc(NC(=O)[C@@H]6C[C@@H]6F)ccc5o4)ccn3)CC2)n1` [Compound 203, (1S,2S)-2-fluoro-N-(2-(2-(4-((R)-(5-methyl-2H-tetrazol-2-yl)(thiophen-3-yl)methyl)piperidine-1-carbonyl)pyridin-4-yl)benzo[d]oxazol-5-yl)cyclopropanecarboxamide], the EC50 in the test on IFV A/PR/8/34 turned out to be 19 nM.
For the compound `[2H]c1c([2H])c([2H])c([C@@H](C2CCN(C(=O)c3cc(-c4nc5cc(NC(=O)[C@@H]6C[C@@H]6F)ccc5o4)ccn3)CC2)n2nnc(C)n2)c([2H])c1[2H]` [Compound 205, (1S,2S)-2-fluoro-N-[2-[2-[4-[(R)-(5-methyltetrazol-2-yl)-(2,3,4,5,6-pentadeuteriophenyl)methyl]piperidine-1-carbonyl]-4-pyridyl]-1,3-benzoxazol-5-yl]cyclopropanecarboxamide], in the test with IFV A/PR/8/34, the EC50 was found to be 5.5 nM.
On the same count and under the same terms, the figure for `O=C(c1cc(-c2nc3cc(-c4cn(C(F)F)cn4)ccc3o2)ccn1)N1CCC(C(c2ccccc2)n2nnc(CO)n2)CC1` (centres unmarked) [Compound 217, (4-(5-(1-(difluoromethyl)-1H-imidazol-4-yl)benzo[d]oxazol-2-yl)pyridin-2-yl)(4-((5-(hydroxymethyl)-2H-tetrazol-2-yl)(phenyl)methyl)piperidin-1-yl)methanone] is 3.3 nM.
